{"source": "patent US20100323989A1", "about": "“PHARMACEUTICAL COMBINATIONS USEFUL FOR TREATING HCV” (Gilead Sciences, Inc., priority 2009, published 2010)", "key": {"[1]": {"system": "HCV genotype 1b replicon cells (Huh-luc)", "assay": "EC50 determination in HCV genotype 1b Huh-luc replicon cells (luciferase)", "type": "cell-based", "details": "Hepatitis C virus, 72 h, 3 days, average ± standard deviation", "description": "(§1) HCV genotype 1b replicon cells (Huh-luc) were obtained from Reblikon (Mainz, Germany). The replicon in these cells is designated I389luc-ubi-neo/NS3-3′/ET and encodes a selectable resistance marker (neomycin phosphotransferase) as well as the firefly luciferase reporter gene. Huh-luc cells were maintained in Dulbecco's Modified Eagle's Medium (DMEM; GIBCO, Carlsbad, Calif.) supplemented with 10% fetal bovine serum (FBS; Hyclone, Logan, Utah) and 0.5 mg/mL of G-418 (GIBCO). Cells were passaged twice a week and maintained at subconfluent levels.\nReplicon cells were seeded in 96-well plates at a density of 5×10^3 cells per well in 100 μL of DMEM culture medium, excluding G-418. Compounds 1 and 2 were serially diluted 1:3 in 100% DMSO (Sigma). These serial dilutions were added to the cells at a 1:200 dilution to achieve a final concentration of 0.5% DMSO in a total volume of 200 μL. […] HCV replication levels in drug-treated samples were expressed as a percentage of those in untreated controls (defined as 100%), and data were fit to the logistic dose response equation y=a/(1+(x/b)c) using XLFit4 software (IDBS, Emeryville, Calif.). EC50 values were calculated from the resulting equations as described previously (Delaney, W. E., et al., Antimicrobial Agents Chemotherapy, 45(6):1705-1713 (2001))."}, "[2]": {"system": "wild-type 1b Con-1 PI-Luc replicon", "assay": "Transient transfection replicon assay, wild type", "type": "cell-based, HCV genotype 1b", "details": "Hepatitis C virus"}, "[3]": {"system": "1b Con-1 PI-Luc replicon with NS5B polymerase mutation M423T", "type": "cell-based, HCV genotype 1b", "details": "ratio of mutant EC50 to wild type EC50, NS5B M423T"}, "[4]": {"system": "1b Con-1 PI-Luc replicon with NS5B polymerase mutation M414T", "type": "cell-based, HCV genotype 1b", "details": "ratio of mutant EC50 to wild type EC50, NS5B M414T"}, "[5]": {"system": "1b Con-1 PI-Luc replicon with NS5B polymerase mutation Y448H", "type": "cell-based, HCV genotype 1b", "details": "ratio of mutant EC50 to wild type EC50, NS5B Y448H"}, "[6]": {"system": "1b Con-1 PI-Luc replicon with NS5B polymerase mutations C316Y/C445F/Y452H", "type": "cell-based, HCV genotype 1b", "details": "ratio of mutant EC50 to wild type EC50, NS5B C316Y/C445F/Y452H"}, "[7]": {"system": "1b PI-luc replicon with NS3 protease mutation V36M", "type": "cell-based, HCV genotype 1b", "details": "ratio of mutant EC50 to wild type EC50, NS3 V36M"}, "[8]": {"system": "1b PI-luc replicon with NS3 protease mutation T54A", "type": "cell-based, HCV genotype 1b", "details": "ratio of mutant EC50 to wild type EC50, NS3 T54A"}, "[9]": {"system": "1b PI-luc replicon with NS3 protease mutation R155K", "type": "cell-based, HCV genotype 1b", "details": "ratio of mutant EC50 to wild type EC50, NS3 R155K"}, "[10]": {"system": "1b PI-luc replicon with NS3 protease mutation A156T", "type": "cell-based, HCV genotype 1b", "details": "ratio of mutant EC50 to wild type EC50, NS3 A156T"}, "[11]": {"system": "1b PI-luc replicon with NS3 protease mutation D168V", "type": "cell-based, HCV genotype 1b", "details": "ratio of mutant EC50 to wild type EC50, NS3 D168V"}, "[12]": {"assay": "Pharmacokinetic drug-drug interaction study, single dose with multiple-dose partner, healthy subjects (Example 6)", "type": "in vivo, human", "details": "for Compound 1 AUC0-last, % Geometric Least-Squares Mean Ratio (90% CI) / Compound 1 AUCinf, % Geometric Least-Squares Mean Ratio (90% CI) / Compound 1 Cmax, % Geometric Least-Squares Mean Ratio (90% CI): Compound 1 + Compound 2 / Compound 1 alone; for AUC(0-t) / AUC(0-inf) / Cmax / half-life: human, plasma; for AUC(0-t): Compound 1 AUC0-last; for AUC(0-t) / AUC(0-inf) / Cmax: Mean (% CV); for AUC(0-inf): Compound 1 AUCinf; for Cmax: Compound 1 Cmax; for half-life: Compound 1 T1/2, Median (min, max)", "description": "In this study, healthy subjects were randomized into one of the following three treatment groups: […] Treatment Group 3 (N=20): […] Serial blood samples for analysis of plasma concentrations of Compound 2 were collected up to 72 hours post-morning dose on Days 1 and 10 to determine systemic drug exposure."}, "[13]": {"system": "HCV 1b-con replicon cells", "assay": "Long-term (20 days, 6 passages) treatment of HCV replicon cells, HCV RNA by Real-Time RT PCR", "type": "cell-based, HCV genotype 1b", "details": "from baseline, compounds at 10 times their EC50, mean ± SD", "description": "as §1\nBoth compounds were used at concentrations 10 times over their respective EC50 values. In brief, replicon cells (10^6 cells) were plated in a T75 flask in 15 mL of supplemented DMEM without G418. […] At each passage, cells were trypsinized, 10^6 cells were frozen in […] of RLT RNA lysis buffer (QIAGEN), and an additional 10^6 cells were seeded into another T75 flask with fresh medium and inhibitors. At the end of the assay, RNA was extracted from frozen replicon cells saved at the time of passage using QIAGEN RNeasy spin kit and was analyzed in a Real-Time RT PCR assay (Applied Biosystems)."}, "[14]": {"assay": "Multiple-dose pharmacokinetic interaction study in healthy subjects (Example 5)", "type": "in vivo, human"}, "[15]": {"details": "Group 1, Compound 1 20 mg with Compound 2 150 mg BID vs Compound 1 20 mg alone"}, "[16]": {"details": "Group 2, Compound 1 40 mg with Compound 2 150 mg BID vs Compound 1 40 mg alone"}, "[17]": {"details": "20 mg, Group 1, human, single-dose Compound 1 20 mg alone"}, "[18]": {"details": "40 mg, Group 2, human, single-dose Compound 1 40 mg alone"}, "[19]": {"details": "Group 1, human, single-dose Compound 1 20 mg + multiple-dose Compound 2 150 mg BID"}, "[20]": {"details": "Group 2, human, single-dose Compound 1 40 mg + multiple-dose Compound 2 150 mg BID"}, "[21]": {"details": "Compound 1 (40 mg BID) + Compound 2 (75 mg BID) / Compound 1 alone"}, "[22]": {"details": "coadministration of Compound 2 (75 mg BID) with Compound 1 (40 mg BID) vs Compound 1 alone"}}, "note": "Where “and” joins values, the source holds several entries; their conditions need not be identical. Equal values may be shown once.", "data": [{"molecule": "Fc1ccccc1-c1nc2ccn(Cc3ccc(-c4ccc(C(F)(F)F)cc4C(F)(F)F)nn3)cc-2n1", "note": "[Compound 1, 5-({6-[2,4-bis(trifluoromethyl)phenyl]pyridazin-3-yl}methyl)-2-(2-fluorophenyl)-5H-imidazo[4,5-c]pyridine]", "values": [{"measurement": "EC50", "setting": "[1]", "value": "3 ± 2", "unit": "nM"}, {"measurement": "EC50", "setting": "[2]; Table 3 (NS5B mutation study)", "value": 1.5, "unit": "nM"}, {"measurement": "EC50", "setting": "[2]; Table 4 (NS3 protease mutation study)", "value": 0.79, "unit": "nM"}, {"measurement": "Fold Resistance M423T", "setting": "[3]", "value": 0.8, "unit": "fold"}, {"measurement": "Fold Resistance M414T", "setting": "[4]", "value": 0.7, "unit": "fold"}, {"measurement": "Fold Resistance Y448H", "setting": "[5]", "value": 38.0, "unit": "fold"}, {"measurement": "Fold Resistance C316Y/C445F/Y452H", "setting": "[6]", "value": ">343", "unit": "fold"}, {"measurement": "Fold Resistance V36M", "setting": "[7]", "value": 1.1, "unit": "fold"}, {"measurement": "Fold Resistance T54A", "setting": "[8]", "value": 1.0, "unit": "fold"}, {"measurement": "Fold Resistance R155K", "setting": "[9]", "value": 0.9, "unit": "fold"}, {"measurement": "Fold Resistance A156T", "setting": "[10]", "value": 0.6, "unit": "fold"}, {"measurement": "Fold Resistance D168V", "setting": "[11]", "value": 1.2, "unit": "fold"}, {"measurement": "Compound 1 AUC0-last, % Geometric Least-Squares Mean Ratio (90% CI)", "setting": "[12]; Group 1 (Compound 1 20 mg)", "value": "250.5 (217.8, 288.0) %"}, {"measurement": "Compound 1 AUCinf, % Geometric Least-Squares Mean Ratio (90% CI)", "setting": "[12]; Group 1 (Compound 1 20 mg)", "value": "321.1 (262.8, 392.2) %"}, {"measurement": "Compound 1 Cmax, % Geometric Least-Squares Mean Ratio (90% CI)", "setting": "[12]; Group 1 (Compound 1 20 mg)", "value": "123.1 (111.6, 135.7) %"}, {"measurement": "increase in AUC0-last of Compound 1", "setting": "[12]; [15]", "value": 151, "unit": "%"}, {"measurement": "increase in AUCinf of Compound 1", "setting": "[12]; [15]", "value": 221, "unit": "%"}, {"measurement": "increase in Cmax of Compound 1", "setting": "[12]; [15]", "value": 23, "unit": "%"}, {"measurement": "Compound 1 AUC0-last, % Geometric Least-Squares Mean Ratio (90% CI)", "setting": "[12]; Group 2 (Compound 1 40 mg)", "value": "253.0 (229.3, 279.1) %"}, {"measurement": "Compound 1 AUCinf, % Geometric Least-Squares Mean Ratio (90% CI)", "setting": "[12]; Group 2 (Compound 1 40 mg)", "value": "350.4 (300.2, 409.1) %"}, {"measurement": "Compound 1 Cmax, % Geometric Least-Squares Mean Ratio (90% CI)", "setting": "[12]; Group 2 (Compound 1 40 mg)", "value": "136.8 (122.7, 152.6) %"}, {"measurement": "increase in AUC0-last of Compound 1", "setting": "[12]; [16]", "value": 153, "unit": "%"}, {"measurement": "increase in AUCinf of Compound 1", "setting": "[12]; [16]", "value": 250, "unit": "%"}, {"measurement": "increase in Cmax of Compound 1", "setting": "[12]; [16]", "value": 37, "unit": "%"}, {"measurement": "increase in median Compound 1 terminal phase elimination half-life", "setting": "[12]; both groups (20 and 40 mg), with Compound 2 150 mg BID vs Compound 1 alone", "value": "approximately 2 fold"}, {"measurement": "AUC(0-t)", "setting": "[12]; [17]", "value": 12800, "unit": "ng·h/mL"}, {"measurement": "AUC(0-inf)", "setting": "[12]; [17]", "value": 13400, "unit": "ng·h/mL"}, {"measurement": "Cmax", "setting": "[12]; [17]", "value": 940, "unit": "ng/mL"}, {"measurement": "half-life", "setting": "[12]; [17]", "value": 16.6, "unit": "h"}, {"measurement": "AUC(0-t)", "setting": "[12]; [18]", "value": 34100, "unit": "ng·h/mL"}, {"measurement": "AUC(0-inf)", "setting": "[12]; [18]", "value": 35500, "unit": "ng·h/mL"}, {"measurement": "Cmax", "setting": "[12]; [18]", "value": 1980, "unit": "ng/mL"}, {"measurement": "half-life", "setting": "[12]; [18]", "value": 19.2, "unit": "h"}, {"measurement": "AUC(0-t)", "setting": "[12]; [19]", "value": 32600, "unit": "ng·h/mL"}, {"measurement": "AUC(0-t)", "setting": "[12]; [20]", "value": 87500, "unit": "ng·h/mL"}, {"measurement": "AUC(0-inf)", "setting": "[12]; [19]", "value": 49500, "unit": "ng·h/mL"}, {"measurement": "AUC(0-inf)", "setting": "[12]; [20]", "value": 137000, "unit": "ng·h/mL"}, {"measurement": "Cmax", "setting": "[12]; [19]", "value": 1140, "unit": "ng/mL"}, {"measurement": "Cmax", "setting": "[12]; [20]", "value": 2730, "unit": "ng/mL"}, {"measurement": "half-life", "setting": "[12]; [19]", "value": 35.8, "unit": "h"}, {"measurement": "half-life", "setting": "[12]; [20]", "value": 39.3, "unit": "h"}, {"measurement": "HCV RNA Change in Log10, Passage 5", "setting": "[13]", "value": "−2.1 ± 0.5", "unit": "Log10"}, {"measurement": "HCV RNA Change in Log10, Passage 6", "setting": "[13]", "value": "−2.3 Log10 and −2.4 ± 0.2 Log10"}, {"measurement": "Compound 1 AUCtau, % Geometric Least Square Mean Ratio (90% CI)", "setting": "[14]; [21]", "value": "206.4 (185.1, 230.0) %"}, {"measurement": "Compound 1 Cmax, % Geometric Least Square Mean Ratio (90% CI)", "setting": "[14]; [21]", "value": "185.2 (167.3, 205.0) %"}, {"measurement": "Compound 1 Ctau, % Geometric Least Square Mean Ratio (90% CI)", "setting": "[14]; [21]", "value": "251.2 (219.5, 287.5) %"}, {"measurement": "increase in AUCtau of Compound 1", "setting": "[14]; [22]", "value": 106, "unit": "%"}, {"measurement": "increase in Cmax of Compound 1", "setting": "[14]; [22]", "value": 85, "unit": "%"}, {"measurement": "increase in Ctau of Compound 1", "setting": "[14]; [22]", "value": 151, "unit": "%"}, {"measurement": "AUC", "setting": "[14]; human, plasma, po, 40 mg", "value": 43400, "unit": "ng·h/mL"}, {"measurement": "Cmax", "setting": "[14]; human, plasma, po, 40 mg", "value": 5040, "unit": "ng/mL"}, {"measurement": "concentration at 12 h", "setting": "[14]; human, plasma, po, 40 mg", "value": 2570, "unit": "ng/mL"}]}]}
